Measured values reported in publication doi:10.1101/513044v1 (biorxiv, 2019).
pEC50: −log10 of the molar value.

Key:
TaOR2 + TaORco = assay: two-electrode voltage clamp, Xenopus oocytes; format: cell-based, Toxorhynchites amboinensis; conditions: agonist; co-expressed with TaORco; -80 mV; 10^-10 to 10^-4 M
TaOR10 + TaORco = assay: two-electrode voltage clamp, Xenopus oocytes; format: cell-based, Toxorhynchites amboinensis; conditions: agonist; co-expressed with TaORco; -80 mV; 10^-10 to 10^-4 M

| SMILES | pEC50 (TaOR2 + TaORco) | pEC50 (TaOR10 + TaORco) |
| --- | --- | --- |
| c1ccc2[nH]ccc2c1 [indole] | 7.06 | 5.04 |
| Cc1c[nH]c2ccccc12 [skatole] | 5.86 | 7.06 |
